Assay results from PMC5600277 (Neuropharmacology, 2017).
Read-outs that look alike come from different tables or passages of the source.

What was measured:
Type in all cases: cell-based
[1] = target: T1, GLIC (Gloeobacter violaceus, UniProt Q7NDN8); assay: two-electrode voltage clamp in Xenopus oocytes, […] inhibition at […]; settings: read-out: % inhibition at 30 μM
T1 sequence (Q7NDN8 44-359): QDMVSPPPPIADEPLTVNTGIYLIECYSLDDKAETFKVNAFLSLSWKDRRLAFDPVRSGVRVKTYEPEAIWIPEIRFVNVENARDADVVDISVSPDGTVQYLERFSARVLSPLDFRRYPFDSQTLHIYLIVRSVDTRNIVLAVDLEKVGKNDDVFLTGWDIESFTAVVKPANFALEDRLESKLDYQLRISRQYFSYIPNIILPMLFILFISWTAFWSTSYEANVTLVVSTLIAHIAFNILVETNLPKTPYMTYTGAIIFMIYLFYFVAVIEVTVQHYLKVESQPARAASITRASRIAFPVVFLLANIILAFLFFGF

[2] = target: T2, GABAρ receptor (GABAAR ρ1) (Homo sapiens, UniProt P24046); assay: two-electrode voltage clamp in Xenopus oocytes, […] potentiation at […]; settings: read-out: % potentiation at 10 μM
[3] = target: T1, GLIC; assay: two-electrode voltage clamp in Xenopus oocytes, […] inhibition at […]; settings: read-out: % inhibition at 30 μM; remark: listed apart in the source
[4] = target: T2, GABAρ receptor (GABAAR ρ1); assay: as above; settings: read-out: % inhibition at 10 μM
[5] = target: T1, GLIC; assay: as above; settings: read-out: % inhibition at 100 μM

T2 sequence (P24046 22-479): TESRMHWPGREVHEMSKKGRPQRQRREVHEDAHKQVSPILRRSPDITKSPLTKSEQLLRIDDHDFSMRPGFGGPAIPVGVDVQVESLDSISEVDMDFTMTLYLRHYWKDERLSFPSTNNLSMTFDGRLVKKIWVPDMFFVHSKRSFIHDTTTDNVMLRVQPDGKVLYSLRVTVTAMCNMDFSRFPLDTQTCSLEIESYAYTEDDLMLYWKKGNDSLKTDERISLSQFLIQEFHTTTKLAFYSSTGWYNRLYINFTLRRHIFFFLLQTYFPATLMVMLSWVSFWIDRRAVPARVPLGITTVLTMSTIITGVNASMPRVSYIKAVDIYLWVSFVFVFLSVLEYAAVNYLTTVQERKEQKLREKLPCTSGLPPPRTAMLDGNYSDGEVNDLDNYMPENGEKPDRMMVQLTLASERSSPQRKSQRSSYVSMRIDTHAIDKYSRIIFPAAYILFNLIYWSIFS

Q: Which results are given for `C[C@]12CC[C@@H](O)C[C@@H]1CC[C@@H]1[C@@H]2CC[C@]2(C)[C@@H](C(=O)CO)CC[C@@H]12` [5α-THDOC]?
A: inhibition at 30 µM [1]: 11 ± 2%; activation at 10 µM [2]: 42 ± 2%

Q: `C[C@]12CC[C@@H](O)C[C@H]1CC[C@@H]1[C@@H]2CC[C@]2(C)[C@@H](C(=O)CO)CC[C@@H]12` [5β-THDOC] was tested. Which inhibition at 30 µM [3] did it give?
A: 67 ± 3%

Q: And the inhibition at 10 µM [4]?
A: 25 ± 2%

Q: `CCCC(C)C1(CC)C(=O)NC(=O)NC1=O` (centres unmarked) [PB, pentobarbital] was tested. Which inhibition at 100 µM [5] did it give?
A: 26 ± 6%
